Laboratory results from PMC6652808, “The Inhibitory Effect of GlmU Acetyltransferase Inhibitor TPSA on Mycobacterium tuberculosis May Be Affected Due to Its Methylation by Methyltransferase Rv0560c” (Frontiers in Cellular and Infection Microbiology, 2019).
Read-outs that look alike come from different tables or passages of the source.

Legend:
Assay in all cases: biochemical
[1] = biological target: T1, GlmU (Mycobacterium tuberculosis, UniProt P9WMN3); design: DTNB colorimetric assay of GlmU acetyltransferase activity, absorbance at 405 nm
[2] = biological target: T1, GlmU; design: Inhibition constants from double reciprocal plots, DTNB acetyltransferase assay with varied substrate
[3] = biological target: T1, GlmU; design: Inhibition constants from double reciprocal plots, DTNB acetyltransferase assay with varied substrate; remark: listed apart in the source
[4] = biological target: T1, GlmU; design: Inhibition constants from double reciprocal plots, DTNB acetyltransferase assay with varied substrate; remark: listed apart in the source

T1 sequence (P9WMN3 2-495): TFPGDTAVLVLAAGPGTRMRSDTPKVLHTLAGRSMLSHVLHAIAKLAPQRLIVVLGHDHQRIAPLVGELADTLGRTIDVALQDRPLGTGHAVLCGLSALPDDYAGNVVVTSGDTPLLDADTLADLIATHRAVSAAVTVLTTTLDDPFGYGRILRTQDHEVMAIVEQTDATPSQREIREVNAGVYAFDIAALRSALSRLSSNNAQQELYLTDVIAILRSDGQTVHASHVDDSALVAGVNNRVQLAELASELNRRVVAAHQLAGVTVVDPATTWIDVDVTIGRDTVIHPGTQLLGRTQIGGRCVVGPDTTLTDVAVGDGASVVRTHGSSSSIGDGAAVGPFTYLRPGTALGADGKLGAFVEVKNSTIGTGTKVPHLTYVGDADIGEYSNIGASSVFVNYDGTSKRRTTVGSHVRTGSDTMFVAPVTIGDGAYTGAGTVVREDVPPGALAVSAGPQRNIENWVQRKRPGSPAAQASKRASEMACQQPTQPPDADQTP

O=c1oc2ccccc2c2c1Sc1ccccc1N2 [BCTZ, 6,12-dihydrobenzo[b]chromeno[4,3-e][1,4]thiazin-6-one]
IC50 [1]: 61.7 µM
Ki [2]: 81.6 µM
Ki [3]: 82.8 µM

O=C1C=CC(=O)N1c1cccc(N2C(=O)C=CC2=O)c1 [DHPP, 1-[3-(2,5-dioxo-2,5-dihydro-1H-pyrrol-1-yl)phenyl]-2,5-dihydro-1H-pyrrole-2,5-dione]
IC50 [1]: 10.3 µM
Ki [4]: 26.4 µM
Ki [3]: 26.3 µM

Cc1ccc(C)n1-c1ccsc1C(=O)O [MPTC, 3-(2,5-dimethyl-1H-pyrrol-1-yl)thiophene-2-carboxylic acid]
IC50 [1]: 159 µM

O=C1NC(=S)SC1=Cc1ccc(OCc2ccc([N+](=O)[O-])cc2)cc1 [NBTT, 5-{4-[(4-nitrobenzyl)oxy]benzylidene}-2-thioxo-1,3-thiazolan-4-one]
IC50 [1]: 65.1 µM
Ki [4]: 40.2 µM
Ki [3]: 41.3 µM

O=C1CC(=O)c2c1cccc2[N+](=O)[O-] [NID, 4-nitroindane-1,3-dione]
IC50 [1]: 124 µM
